Reference: PMC5159191 (Nature, 2016)

System: CCR2-T4L
Format: binding, human
Conditions: [3H]-INCB-3344 homologous displacement

CCO[C@H]1CN(C2CCC(O)(c3ccc4c(c3)OCO4)CC2)C[C@@H]1NC(=O)CNC(=O)c1cccc(C(F)(F)F)c1 (stereo partly shown) [INCB-3344]
improvement of affinity towards CCR2-T4L compared to WT CCR2: approximately 2 fold
